Laboratory results reported in US10280183B2, “Therapeutic agent for treating tumors” (THE RESEARCH FOUNDATION FOR THE STATE UNIVERSITY OF NEW YORK, priority 2014, dated 2019).
Like-named read-outs stand apart in the source and are kept apart here.

How the values were obtained:
[1] = test system: ID8 murine ovarian carcinoma cell line (BR+); test: In vitro cytotoxicity, standard MTT assay, ID8 cells; format: cell-based; conditions: Mus musculus, Ovarian carcinoma cell, read-out: Cytotoxicity IC50, ID8
Experimental: (§1) Cell Culture. All cell lines were obtained from ATCC unless otherwise noted. Cells were cultured in RPMI-1640 cell culture medium (Gibco) or DMEM (Gibco), both supplemented with 5% (v/v) heat-inactivated fetal bovine serum (FBS), 5% (v/v) NuSerum, and 1% (v/v) penicillin and streptomycin (PenStrep) at 37° C. in a humidified atmosphere with 5% CO2. MX-1 and ID8 (obtained from University of Kansas Medical Center) cells were cultured as monolayers on 100 mm tissue culture dishes in supplemented RPMI-1640. L1210 and L1210FR (a gift from Dr. Gregory Russell-Jones, Access Pharmaceuticals Pty Ltd., Australia) were grown as a suspension in supplemented RPMI-1640, and WI-38 as a monolayer in supplemented DMEM. Cells were harvested, collected by centrifugation at 850 rpm for 5 min, and resuspended in fresh culture medium. Cell cultures were routinely divided by treatment with trypsin (TrypLE, Gibco) as needed every 2-4 days and collected by centrifugation at 850 rpm for 5 min, and resuspended in fresh cell culture medium, containing varying cell densities for subsequent biological experiments and analysis.
(§2) In Vitro Cytotoxicity Assays. […] Cells were harvested, collected, and resuspended in 100 μL cell culture medium at concentrations ranging from 0.5-1.5×10^4 cells per well in a 96-well plate. For adhesive cell types, cells were allowed to descend to the bottom of the wells overnight, and fresh medium was added to each well upon removal of the old medium.
For the MTT assay (Table 1 and the Assay 1 in Table 2) of paclitaxel, taxoid 3 and conjugates 1 and 15, cells were resuspended in 200 μL medium with 8,000 to 10,000 cells per well of a 96-well plate and incubated at 37° C. for 24 h before drug treatment. In DMSO stock solutions, each drug or conjugate was diluted to a series of concentrations in cell culture medium to prepare test solutions. […] For the leukemia cell lines, L1210 and L1210FR, cells were harvested, collected, and resuspended in the test solutions ranging from 0.5 to 5,000 nM (100 μL) at 0.5 to 0.8 ×10^4 cells per well in a 96-well plate and subsequently incubated at 37° C. for 48 h (Table 1) or 72 h (Table 2, Assay 1).
(§3) For all experiments, after removing the test medium, fresh solution of MTT in PBS (40 μL of 0.5 mg MTT/mL) was added to the wells, and the cells were incubated at 37° C. for 3 h. The MTT solution was then removed, and the resulting insoluble violet formazan crystals were dissolved in 0.1 N HCl in isopropanol with 10% Triton X-100 (40 μL) to give a violet solution. The spectrophotometric absorbance measurement of each well in the 96-well plate was run at 570 nm using a Labsystems Multiskan Ascent microplate reader. The IC50 values and their standard errors were calculated from the viability-concentration curve using Four Parameter Logistic Model of Sigmaplot. The concentration of DMSO per well was ≤1% in all cases. Each experiment was run in triplicate.

[2] = test system: L1210FR murine lymphocytic leukemia cell line (BR+); test: In vitro cytotoxicity, standard MTT assay, L1210FR cells; format: cell-based; conditions: Mus musculus
Experimental: as §1, §2
(§4) For the MTT assay (Table 1 and the Assay 1 in Table 2) of paclitaxel, taxoid 3 and conjugates 1 and 15, cells were resuspended in 200 μL medium with 8,000 to 10,000 cells per well of a 96-well plate and incubated at 37° C. for 24 h before drug treatment. In DMSO stock solutions, each drug or conjugate was diluted to a series of concentrations in cell culture medium to prepare test solutions. After removing the old medium, these test solutions were added to the wells in the 96-well plate to give the final concentrations ranging from 0.5 to 5,000 nM (100 μL), and the cells were subsequently cultured at 37° C. for 48 h (Table 1) or 72 h (Table 2, Assay 1). For the leukemia cell lines, L1210 and L1210FR, cells were harvested, collected, and resuspended in the test solutions ranging from 0.5 to 5,000 nM (100 μL) at 0.5 to 0.8 ×10^4 cells per well in a 96-well plate and subsequently incubated at 37° C. for 48 h (Table 1) or 72 h (Table 2, Assay 1).
(§5) In the Assay 2 (Table 2), cells were incubated with 1 or 15 at 37° C. for 24 h, and the drug medium was removed. Then, treated cells were thoroughly washed with PBS, and GSH-OEt (6 equiv. to conjugate) in cell culture medium (200 μL) was added to the wells. These cells were incubated at 37° C. for an additional 48 h, i.e., the total incubation time was 72 h.
(§6) In the Assay 3 (Table 2), cells were incubated with 1 or 15 at 37° C. for 24 h, and GSH-OEt (6 equivalents) in cell culture medium (100 μL) was directly added to the wells. These cells were incubated at 37° C. for an additional 48 h, i.e. the total incubation time was also 72 h.
as §3

[3] = In vitro cytotoxicity, standard MTT assay, WI38 cells; format: cell-based, human; conditions: human; for IC50 at 48 h: incubation at 37° C. for 48 h
Experimental: as §1, §2, §4, §5, §6, §3

[4] = test system: MX-1 human breast carcinoma cell line (BR+); test: In vitro cytotoxicity, standard MTT assay, MX-1 cells; format: cell-based; conditions: Homo sapiens, Breast carcinoma cell
Experimental: as §1, §2, §4, §5, §6, §3

[5] = test system: BR+ cancer cell lines (L1210FR, MX-1, ID8); test: MTT cytotoxicity summarised over BR+ cancer cell lines; format: cell-based; conditions: for Cancer cell selectivity (BR-specificity), BR+ cancer cells vs BR− WI38 cells: Assay 2
Experimental: as §2, §4, §5, §6, §3
Thus, the Assay 1 results provide the potency of conjugates in the same manner as that for the first assay summarized in Table 1, but for longer incubation time (48 h vs. 72 h). […] Accordingly, this assay may mimic the corresponding in vivo assay conditions, wherein non-internalized conjugates would be removed from the tumor, redistributed and eventually excreted. […] Thus, in principle, the results (IC50 values) in this assay should be very close to those for the control using taxoid 3 (entry 2).

[6] = test system: L1210 murine lymphocytic leukemia cell line (BR−); test: In vitro cytotoxicity, standard MTT assay, L1210 cells; format: cell-based; conditions: Mus musculus, read-out: Cytotoxicity IC50, L1210
Experimental: as §1, §2, §4, §3

[7] = test system: WI38 human lung fibroblast cell line (BR−); test: In vitro cytotoxicity, standard MTT assay, WI38 cells; format: cell-based
Experimental: as §1, §2, §4, §5, §6, §3

[8] = 48 h, read-out: Cytotoxicity IC50, L1210FR
[9] = 72 h, read-out: Cytotoxicity IC50, L1210FR, Assay 1
[10] = read-out: Cytotoxicity IC50, L1210FR, Assay 2
[11] = read-out: Cytotoxicity IC50, L1210FR, Assay 3
[12] = 24 h incubation, PBS wash, then GSH-OEt (6 equiv.) and additional 48 h, read-out: Cytotoxicity IC50, WI38, Assay 2
[13] = 24 h incubation, then GSH-OEt (6 equiv.) added without washing, additional 48 h, read-out: Cytotoxicity IC50, WI38, Assay 3
[14] = 72 h incubation, no GSH-OEt, read-out: Cytotoxicity IC50, WI38, Assay 1
[15] = 48 h, read-out: Cytotoxicity IC50, MX-1
[16] = 72 h, read-out: Cytotoxicity IC50, MX-1, Assay 1
[17] = read-out: Cytotoxicity IC50, MX-1, Assay 2
[18] = read-out: Cytotoxicity IC50, MX-1, Assay 3
[19] = 24 h, PBS wash, GSH-OEt, additional 48 h, range over conjugates 1 and 15, read-out: IC50 range against BR+ cancer cells (MX-1, L1210FR), Assay 2
[20] = GSH-OEt added after 24 h without PBS washing, additional 48 h, range over conjugates 1 and 15, read-out: IC50 range against MX-1 and L1210FR, third assay (Assay 3)

SMILES	IC50 ([1]; 48 h)	IC50 [2, 8]	IC50 [2, 9]	IC50 [2, 10]	IC50 [2, 11]	IC50 at 72 h [3, 12]	IC50 at 72 h [3, 13]	IC50 at 72 h [3, 14]	IC50 at 48 h [3]	IC50 [4, 15]	IC50 [4, 16]	IC50 [4, 17]	IC50 [4, 18]	IC50 [5, 19]	Cancer cell selectivity (BR-specificity), BR+ cancer cells vs BR− WI38 cells [5]	IC50 [5, 20]	IC50 ([6]; L1210, 48 h)	also measured
CC(=O)O[C@@]12CO[C@@H]1C[C@H](O)[C@@]1(C)C(=O)[C@H](OC(=O)C3CC3)C3=C(C)[C@@H](OC(=O)[C@H](OC(=O)Cc4ccccc4SSC(C)C(=O)NCCNc4nc(NCCOCCOCCOCCNC(=O)CCCC[C@@H]5SC[C@@H]6NC(=O)N[C@@H]65)nc(NCc5cn(CCOCCOCCOCCF)nn5)n4)[C@H](C=C(C)C)NC(=O)OC(C)(C)C)C[C@@](O)([C@@H](OC(=O)c4ccccc4)[C@H]21)C3(C)C (stereo partly shown) [Conjugate 1]	6.62 ± 0.86 nM	14.7 ± 4 nM	10.2 ± 3 nM	6.6 ± 3.96 nM	2.79 ± 1.43 nM	615 ± 97 nM	12.9 ± 4.3 nM	682 ± 110 nM	709 nM	21.2 ± 4.6 nM	6.27 ± 2.06 nM	4.79 ± 0.12 nM	2.56 ± 0.15 nM	3.85 to 6.6 nM	two-orders of magnitude difference	2.4 to 2.92 nM	593 nM	IC50 ([5]; 48 h, read-out: Cytotoxicity IC50, range over L1210FR, MX-1 and ID8): 6 to 21 nM
CC(=O)O[C@@]12CO[C@@H]1C[C@H](O)[C@@]1(C)C(=O)[C@H](OC(=O)C3CC3)C3=C(C)[C@@H](OC(=O)[C@H](OC(=O)Cc4ccccc4SSC(C)CCC(=O)NNC(=O)CCCC[C@@H]4SC[C@@H]5NC(=O)N[C@@H]54)[C@H](C=C(C)C)NC(=O)OC(C)(C)C)C[C@@](O)([C@@H](OC(=O)c4ccccc4)[C@H]21)C3(C)C (stereo partly shown) [Conjugate 15, Biotin-(SS-Linker)-SB-T-1214]	4.32 ± 1.58 nM	13.4 ± 6.8 nM	12.3 ± 2.8 nM	5.15 ± 2.85 nM	2.92 ± 2.34 nM	590 ± 164 nM	11 ± 3.1 nM	645 ± 97 nM	670 ± 89 nM	15.4 ± 4.2 nM	4.66 ± 0.87 nM	3.85 ± 0.14 nM	2.4 ± 0.18 nM	3.85 to 6.6 nM	two-orders of magnitude difference	2.4 to 2.92 nM	481 ± 34 nM	–
CC(=O)O[C@@]12CO[C@@H]1C[C@H](O)[C@@]1(C)C(=O)[C@H](OC(=O)C3CC3)C3=C(C)[C@@H](OC(=O)[C@H](O)[C@H](C=C(C)C)NC(=O)OC(C)(C)C)C[C@@](O)([C@@H](OC(=O)c4ccccc4)[C@H]21)C3(C)C [Taxoid 3, SB-T-1214, reference compound]	0.17 ± 0.14 nM	4.18 ± 1.8 nM	2.32 ± 1.41 nM	–	–	–	–	4.89 ± 2.24 nM	5.23 ± 0.27 nM	4.13 ± 2.59 nM	2.66 ± 0.16 nM	–	–	–	–	–	7.05 ± 1.38 nM	IC50 ([5]; 72 h incubation, read-out: IC50 range of free taxoid against MX-1 and L1210FR): 2.32 to 2.66 nM
CC(=O)O[C@H]1C(=O)[C@@]2(C)[C@H]([C@H](OC(=O)c3ccccc3)[C@]3(O)C[C@H](OC(=O)[C@H](O)[C@@H](NC(=O)c4ccccc4)c4ccccc4)C(C)=C1C3(C)C)[C@]1(OC(C)=O)CO[C@@H]1C[C@@H]2O [paclitaxel, reference compound]	–	–	–	–	–	–	–	–	–	–	–	–	–	–	–	–	–	IC50 ([1]; incubation at 37° C. for 48 h): 14.4 ± 1.81 nM; IC50 ([2]; 72 h incubation, no GSH-OEt, read-out: Cytotoxicity IC50, L1210FR, Assay 1): 35.6 ± 8.2 nM; IC50 ([2]; incubation at 37° C. for 48 h, read-out: Cytotoxicity IC50, L1210FR): 38.7 ± 17.7 nM; IC50 [7, 14]: 55.7 ± 9.54 nM; IC50 ([7]; incubation at 37° C. for 48 h, read-out: Cytotoxicity IC50, WI38): 61.4 ± 12.7 nM; IC50 ([4]; 72 h incubation, no GSH-OEt, read-out: Cytotoxicity IC50, MX-1, Assay 1): 4.07 ± 0.8 nM; IC50 ([4]; incubation at 37° C. for 48 h, read-out: Cytotoxicity IC50, MX-1): 7.23 ± 0.68 nM; IC50 ([6]; L1210, incubation at 37° C. for 48 h): 77.1 ± 12.8 nM
